Measurements as given in PubChem BioAssay (NCI).
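Briefly, cells in 96-well plates were exposed to five compound concentrations for 48 h, and endpoints were estimated by linear interpolation. Here, GI50 denotes the concentration required for 50% inhibition of growth. TGI denotes the concentration required for complete inhibition of growth.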

Key:
Assay in all cases: NCI anticancer screen, dose series, 48 h; in the data active = GI50 below about 0.43 µM; inactive = the rest
CAKI-1 renal = test system: CAKI-1 renal
SK-MEL-2 melanoma = test system: SK-MEL-2 melanoma
BT-549 breast = test system: BT-549 breast
HOP-92 NSCLC = test system: HOP-92 NSCLC
U251 CNS = test system: U251 CNS
TK-10 renal = test system: TK-10 renal
T-47D breast = test system: T-47D breast
SF-539 CNS = test system: SF-539 CNS
SK-MEL-5 melanoma = test system: SK-MEL-5 melanoma
HCT-116 colon = test system: HCT-116 colon
SNB-19 CNS = test system: SNB-19 CNS
MCF7 breast = test system: MCF7 breast
NCI-H522 lung = test system: NCI-H522 lung
OVCAR-3 ovarian = test system: OVCAR-3 ovarian
DU-145 prostate = test system: DU-145 prostate
HT29 colon = test system: HT29 colon
OVCAR-8 ovarian = test system: OVCAR-8 ovarian
A498 renal = test system: A498 renal
OVCAR-4 ovarian = test system: OVCAR-4 ovarian
COLO 205 colon = test system: COLO 205 colon
MDA-MB-231 breast = test system: MDA-MB-231 breast
HOP-62 NSCLC = test system: HOP-62 NSCLC
SK-OV-3 ovarian = test system: SK-OV-3 ovarian
HCC-2998 colon = test system: HCC-2998 colon
PC-3 prostate = test system: PC-3 prostate
SW-620 colon = test system: SW-620 colon
SF-295 CNS = test system: SF-295 CNS
ACHN renal = test system: ACHN renal
LOX IMVI melanoma = test system: LOX IMVI melanoma
NCI-H460 lung = test system: NCI-H460 lung
SNB-75 CNS = test system: SNB-75 CNS
NCI-H23 lung = test system: NCI-H23 lung
UACC-62 melanoma = test system: UACC-62 melanoma
SF-268 CNS = test system: SF-268 CNS
HS 578T breast = test system: HS 578T breast
786-0 renal = test system: 786-0 renal
OVCAR-5 ovarian = test system: OVCAR-5 ovarian
KM12 colon = test system: KM12 colon
RPMI-8226 leukemia = test system: RPMI-8226 leukemia
RXF 393 renal = test system: RXF 393 renal
M14 melanoma = test system: M14 melanoma
SN12C renal = test system: SN12C renal
IGROV1 ovarian = test system: IGROV1 ovarian
MALME-3M melanoma = test system: MALME-3M melanoma
NCI/ADR-RES ovarian = test system: NCI/ADR-RES ovarian
HCT-15 colon = test system: HCT-15 colon
MDA-MB-435 = test system: MDA-MB-435
SK-MEL-28 melanoma = test system: SK-MEL-28 melanoma
EKVX NSCLC = test system: EKVX NSCLC
K-562 leukemia = test system: K-562 leukemia
NCI-H226 lung = test system: NCI-H226 lung
A549 NSCLC = test system: A549 NSCLC
UO-31 renal = test system: UO-31 renal
UACC-257 melanoma = test system: UACC-257 melanoma

Fc1cc(-c2csc3n[nH]c(=S)n23)c(Cl)cc1Cl
42.7 µM: TGI (786-0 renal)
70.1 µM: TGI (HCC-2998 colon)
88.8 µM: TGI (HCT-116 colon)
58.8 µM: TGI (SN12C renal)
57.5 µM: TGI (ACHN renal)
48.4 µM: TGI (UACC-62 melanoma)
92.7 µM: TGI (HS 578T breast)
> 100 µM: TGI (CAKI-1 renal) | TGI (BT-549 breast) | TGI (TK-10 renal) | TGI (T-47D breast) | TGI (SK-MEL-5 melanoma) | TGI (SNB-19 CNS) | TGI (MCF7 breast) | TGI (NCI-H522 lung) | TGI (OVCAR-3 ovarian) | TGI (DU-145 prostate) | TGI (HT29 colon) | TGI (OVCAR-8 ovarian) | TGI (COLO 205 colon) | TGI (SK-OV-3 ovarian) | TGI (PC-3 prostate) | TGI (SW-620 colon) | TGI (LOX IMVI melanoma) | TGI (NCI-H460 lung) | TGI (SF-268 CNS) | TGI (OVCAR-5 ovarian) | TGI (KM12 colon) | TGI (RPMI-8226 leukemia) | TGI (M14 melanoma) | TGI (IGROV1 ovarian) | TGI (MALME-3M melanoma) | TGI (NCI/ADR-RES ovarian) | TGI (HCT-15 colon) | TGI (MDA-MB-435) | TGI (SK-MEL-28 melanoma) | TGI (K-562 leukemia) | TGI (A549 NSCLC) | TGI (UO-31 renal) | TGI (UACC-257 melanoma)
59.7 µM: TGI (NCI-H226 lung)
50.5 µM: TGI (SF-295 CNS)
76.5 µM: TGI (SK-MEL-2 melanoma)
47.1 µM: TGI (A498 renal)
40.1 µM: TGI (MDA-MB-231 breast)
35.4 µM: TGI (U251 CNS)
55.3 µM: TGI (HOP-92 NSCLC)
50 µM: TGI (SNB-75 CNS)
63 µM: TGI (RXF 393 renal)
78.8 µM: TGI (NCI-H23 lung)
66 µM: TGI (EKVX NSCLC)
38.8 µM: TGI (HOP-62 NSCLC)
41 µM: TGI (SF-539 CNS)
73.9 µM: TGI (OVCAR-4 ovarian)
inactive: GI50 (CAKI-1 renal) 33 µM | GI50 (SK-MEL-2 melanoma) 26.7 µM | GI50 (BT-549 breast) 36.4 µM | GI50 (HOP-92 NSCLC) 21.1 µM | GI50 (U251 CNS) 17.1 µM | GI50 (TK-10 renal) 38.5 µM | GI50 (T-47D breast) 53.3 µM | GI50 (SF-539 CNS) 24.7 µM | GI50 (SK-MEL-5 melanoma) 55.7 µM | GI50 (HCT-116 colon) 27.3 µM | GI50 (SNB-19 CNS) 47 µM | GI50 (MCF7 breast) 48.4 µM | GI50 (NCI-H522 lung) 39.2 µM | GI50 (OVCAR-3 ovarian) 34.9 µM | GI50 (DU-145 prostate) 32.5 µM | GI50 (HT29 colon) 65.8 µM | GI50 (OVCAR-8 ovarian) 44.5 µM | GI50 (A498 renal) 19 µM | GI50 (OVCAR-4 ovarian) 27.7 µM | GI50 (COLO 205 colon) 41.7 µM | GI50 (MDA-MB-231 breast) 14.5 µM | GI50 (HOP-62 NSCLC) 20.1 µM | GI50 (SK-OV-3 ovarian) 35.6 µM | GI50 (HCC-2998 colon) 25.8 µM | GI50 (PC-3 prostate) 31.4 µM | GI50 (SW-620 colon) > 100 µM | GI50 (SF-295 CNS) 17.8 µM | GI50 (ACHN renal) 23.7 µM | GI50 (LOX IMVI melanoma) 37.2 µM | GI50 (NCI-H460 lung) 35.4 µM | GI50 (SNB-75 CNS) 22.1 µM | GI50 (NCI-H23 lung) 23.5 µM | GI50 (UACC-62 melanoma) 18.6 µM | GI50 (SF-268 CNS) 35.5 µM | GI50 (HS 578T breast) 28.8 µM | GI50 (786-0 renal) 22.2 µM | GI50 (OVCAR-5 ovarian) 41 µM | GI50 (KM12 colon) 32.6 µM | GI50 (RPMI-8226 leukemia) 23.5 µM | GI50 (RXF 393 renal) 21.6 µM | GI50 (M14 melanoma) 39.9 µM | GI50 (SN12C renal) 22.4 µM | GI50 (IGROV1 ovarian) 58.9 µM | GI50 (MALME-3M melanoma) 41.1 µM | GI50 (NCI/ADR-RES ovarian) 37.6 µM | GI50 (HCT-15 colon) 32.8 µM | GI50 (MDA-MB-435) 55.8 µM | GI50 (SK-MEL-28 melanoma) 48.2 µM | GI50 (EKVX NSCLC) 21.1 µM | GI50 (K-562 leukemia) 32.2 µM | GI50 (NCI-H226 lung) 19.6 µM | GI50 (A549 NSCLC) 42 µM | GI50 (UO-31 renal) 43 µM | GI50 (UACC-257 melanoma) 93.5 µM
